What was measured:
[1] = target: Glycogen synthase kinase-3 beta (Homo sapiens, UniProt P49841)
[2] = target: Ribosomal protein S6 kinase beta-1 (Homo sapiens, UniProt P23443); test: Inhibition of p70S6K assessed as decrease in NADH absorbance at 340 nm in the presence of
[3] = target: Rho-associated protein kinase 1 (Homo sapiens, UniProt Q13464)
Description: Inhibition of ROCK1 assessed as decrease in NADH absorbance at 340 nm in the presence of

[4] = target: cAMP-dependent protein kinase catalytic subunit alpha (Homo sapiens, UniProt P17612); test: Inhibition of PKAalpha assessed as decrease in NADH absorbance at 340 nm in the presence of

Chain of Rho-associated protein kinase 1 (Q13464 whole entry): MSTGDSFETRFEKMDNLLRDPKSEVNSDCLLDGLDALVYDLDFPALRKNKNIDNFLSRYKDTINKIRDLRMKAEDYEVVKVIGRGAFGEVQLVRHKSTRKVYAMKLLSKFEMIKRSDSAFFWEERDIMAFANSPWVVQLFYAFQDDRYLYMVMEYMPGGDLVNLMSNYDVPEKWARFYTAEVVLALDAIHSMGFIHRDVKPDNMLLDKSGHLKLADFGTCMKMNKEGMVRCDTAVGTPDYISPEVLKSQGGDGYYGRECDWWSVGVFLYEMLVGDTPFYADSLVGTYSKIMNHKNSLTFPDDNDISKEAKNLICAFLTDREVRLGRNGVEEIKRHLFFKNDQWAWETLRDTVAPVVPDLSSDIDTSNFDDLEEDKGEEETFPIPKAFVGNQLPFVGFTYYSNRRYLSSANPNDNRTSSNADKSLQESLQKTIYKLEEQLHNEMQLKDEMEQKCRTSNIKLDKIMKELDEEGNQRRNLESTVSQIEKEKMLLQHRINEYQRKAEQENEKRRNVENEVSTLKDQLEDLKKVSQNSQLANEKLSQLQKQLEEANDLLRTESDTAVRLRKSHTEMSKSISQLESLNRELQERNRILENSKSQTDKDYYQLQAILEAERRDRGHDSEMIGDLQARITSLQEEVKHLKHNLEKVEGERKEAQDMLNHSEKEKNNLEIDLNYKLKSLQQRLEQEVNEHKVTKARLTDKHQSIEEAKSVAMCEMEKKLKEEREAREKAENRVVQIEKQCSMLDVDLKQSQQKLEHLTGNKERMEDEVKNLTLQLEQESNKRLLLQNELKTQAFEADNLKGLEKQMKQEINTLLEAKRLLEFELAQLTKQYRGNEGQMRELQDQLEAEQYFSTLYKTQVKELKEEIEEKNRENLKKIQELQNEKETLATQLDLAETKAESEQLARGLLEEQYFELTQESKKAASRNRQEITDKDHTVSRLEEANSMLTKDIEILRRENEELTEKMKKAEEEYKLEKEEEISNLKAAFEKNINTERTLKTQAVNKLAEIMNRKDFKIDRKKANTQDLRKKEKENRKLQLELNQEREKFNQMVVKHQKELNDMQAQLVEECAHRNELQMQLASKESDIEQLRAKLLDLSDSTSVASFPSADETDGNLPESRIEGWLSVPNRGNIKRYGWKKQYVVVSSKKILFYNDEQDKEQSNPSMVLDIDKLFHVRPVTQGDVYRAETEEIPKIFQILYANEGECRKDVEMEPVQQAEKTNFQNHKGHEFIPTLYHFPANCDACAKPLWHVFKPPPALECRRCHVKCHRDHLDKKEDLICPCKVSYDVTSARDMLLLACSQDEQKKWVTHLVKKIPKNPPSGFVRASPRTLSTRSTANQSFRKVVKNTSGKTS
Chain of Ribosomal protein S6 kinase beta-1 (P23443 whole entry): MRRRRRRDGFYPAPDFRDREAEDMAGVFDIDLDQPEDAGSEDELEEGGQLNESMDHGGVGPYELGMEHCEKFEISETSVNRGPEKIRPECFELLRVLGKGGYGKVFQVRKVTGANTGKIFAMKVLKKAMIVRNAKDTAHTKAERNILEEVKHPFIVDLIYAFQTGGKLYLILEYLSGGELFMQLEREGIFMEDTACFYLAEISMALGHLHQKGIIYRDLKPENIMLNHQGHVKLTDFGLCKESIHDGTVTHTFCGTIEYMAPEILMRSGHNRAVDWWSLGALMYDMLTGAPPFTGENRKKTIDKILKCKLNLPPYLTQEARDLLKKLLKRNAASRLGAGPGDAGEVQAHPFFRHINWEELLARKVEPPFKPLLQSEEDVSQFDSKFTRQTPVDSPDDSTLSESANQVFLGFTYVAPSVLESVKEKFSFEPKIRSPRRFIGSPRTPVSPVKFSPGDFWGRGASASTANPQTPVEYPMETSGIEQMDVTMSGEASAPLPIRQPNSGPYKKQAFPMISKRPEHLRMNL
Chain of Glycogen synthase kinase-3 beta (P49841 whole entry): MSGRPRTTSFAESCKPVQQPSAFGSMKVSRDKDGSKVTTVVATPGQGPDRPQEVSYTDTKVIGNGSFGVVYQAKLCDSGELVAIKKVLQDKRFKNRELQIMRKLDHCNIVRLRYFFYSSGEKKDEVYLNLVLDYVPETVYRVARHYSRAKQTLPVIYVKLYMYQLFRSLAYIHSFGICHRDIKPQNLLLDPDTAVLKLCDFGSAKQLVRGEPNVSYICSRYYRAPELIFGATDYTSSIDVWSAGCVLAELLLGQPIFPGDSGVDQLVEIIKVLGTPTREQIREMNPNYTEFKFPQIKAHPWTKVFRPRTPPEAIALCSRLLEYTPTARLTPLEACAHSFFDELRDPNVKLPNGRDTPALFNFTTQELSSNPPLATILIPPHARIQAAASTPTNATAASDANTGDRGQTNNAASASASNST

Row | Compound | Ki [1] [nM] | Ki [2] [nM] | Ki [3] [nM] | Ki [4] [nM]
1 | Cc1cn(CC(C)C)c(-c2nonc2N)n1 | 690 | 340 | > 3300 | > 3300
2 | COc1cccc(-n2c(-c3nonc3N)nc3ccccc32)c1 | > 5000 | 1900 | > 5000 | 
3 | COc1ccc(-n2c(-c3nonc3N)nc3ccccc32)cc1 | > 5000 | 550 | 2100 | > 4000
4 | Nc1nonc1-c1nc2ccccc2n1-c1ccccc1 | 620 | 110 | 590 | 1300
5 | N#Cc1ccccc1-n1c(-c2nonc2N)nc2ccccc21 | > 3300 | 26 | 810 | > 5000
6 | N#Cc1cccc(-n2c(-c3nonc3N)nc3ccccc32)c1 | > 2500 | 800 | > 2500 | > 5000
7 | N#Cc1ccc(-n2c(-c3nonc3N)nc3ccccc32)cc1 | 1000 | 800 | > 2500 | > 5000
8 | COc1ccccc1-n1c(-c2nonc2N)nc2ccccc21 | > 5000 | 31 | 1300 | > 5000
9 | Cn1c(-c2nonc2N)nc2ccccc21 | 7300 | 540 | > 3300 | > 4000
10 | Nc1nonc1-c1nc2ccccc2n1CC1CCC1 |  | 69 |  | 1400
11 | Nc1nonc1-c1nc2ccccc2n1C1CCCCC1 | 240 | 12 | 720 | 600
12 | Nc1nonc1-c1nc2ccccc2n1CC1CC1 | 290 | 12 | 360 | 380
13 | Nc1nonc1-c1nc2cc(O)ccc2n1C1CCC1 | 1100 | < 1 | 2200 | 2800
14 | CC(C)Cn1c(-c2nonc2N)nc2ccccc21 |  | 22 | 930 | 1100
15 | Cc1ccc2c(c1)nc(-c1nonc1N)n2C1CCC1 | 3200 | 19 | > 3300 | 2600
16 | CC(C)n1c(-c2nonc2N)nc2ccccc21 | 1500 | 40 | 1900 | > 3300
17 | CC(C)Cn1cc(-c2ccccc2)nc1-c1nonc1N | > 3300 | 89 | > 3300 | 1200
18 | Nc1nonc1-c1nc2ccccc2n1C1CC1 | > 3300 | 95 | 450 | > 3300
19 | Nc1nonc1-c1nc2ccccc2n1C1CCC1 | 380 | 4 | 180 | 540
20 | Nc1nonc1-c1nc2ccccc2n1C1CCCC1 | 210 | 13 | 340 | 720
21 | Nc1ccc2c(c1)nc(-c1nonc1N)n2C1CCC1 | 2100 | < 1 | 85 | 34
22 | COc1ccc2c(c1)nc(-c1nonc1N)n2C1CCC1 | 460 | 39 | 940 | 2500
23 | COC(=O)c1ccc2c(c1)nc(-c1nonc1N)n2C1CCC1 | > 3300 | 410 | > 3300 | > 3300
24 | CC(=O)Nc1ccc2c(c1)nc(-c1nonc1N)n2C1CCC1 | > 3300 | 2200 | > 3300 | > 3300
25 | Nc1nonc1-c1nc2cc(CO)ccc2n1C1CCC1 | > 3300 | 16 | > 3300 | 1500
26 | CC(C)Cn1cc(C#N)nc1-c1nonc1N | > 3300 | 1600 | > 3300 | > 3300
27 | CCn1c(-c2nonc2N)nc2ccccc21 [GW549034X] | 700 | 50 | 330 | 960

From ChEMBL document CHEMBL1153801, “4-(Benzimidazol-2-yl)-1,2,5-oxadiazol-3-ylamine derivatives: potent and selective p70S6 kinase inhibitors” (Bioorg Med Chem Lett, 2009)
